In brackets after ≈: the same amount, converted by molar mass.
Assays:
Type in all cases: functional
Escherichia coli = test: Minimal inhibitory concentration against Escherichia coli (strain 54127) after 48 hr of incubation was evaluated
Candida albicans [1] = test: Minimal inhibitory concentration against Candida albicans (strain CIP 1180-79) after 48 hr of incubation was evaluated; conditions: CIP 1180-79, 48 h
Enterococcus hirae = test: Minimal inhibitory concentration against Enterococcus hirae (strain CIP 5855) after 48 hr of incubation was evaluated; conditions: CIP 5855, 48 h
Staphylococcus aureus = test: Minimal inhibitory concentration against Staphylococcus aureus (strain CIP 54127) after 48 hr of incubation was evaluated; conditions: CIP 54127, 48 h
Saccharomyces cerevisiae = test: Minimal inhibitory concentration against Saccharomyces cerevisiae (strain ATC 28383) after 48 hr of incubation was evaluated
Candida albicans [2] = test: Minimal inhibitory concentration against Candida albicans (strain CIP 1180-79) after 48 hr of incubation was evaluated; Range = 4 - 8 ug/mL; conditions: CIP 1180-79, 48 h

| Structure (SMILES) | MIC (Escherichia coli) | MIC (Candida albicans [1]) | MIC (Enterococcus hirae) | MIC (Staphylococcus aureus) | MIC (Saccharomyces cerevisiae) | MIC (Candida albicans [2]) |
| --- | --- | --- | --- | --- | --- | --- |
| CC(C)CCC[C@@H](C)[C@H]1CCC2C3C(CC[C@@]21C)[C@@]1(C)CC[C@H](O)CC1=C[C@H]3NCCCNCCCCN (stereo partly drawn) | 6.25 µg/mL (≈ 11.8 µM) | 6.25 µg/mL (≈ 11.8 µM) | 3.12 µg/mL (≈ 5.89 µM) | 3.12 µg/mL (≈ 5.89 µM) | 3.12 µg/mL (≈ 5.89 µM) |  |
| CC(C)CCC[C@@H](C)[C@H]1CCC2C3C(CC[C@@]21C)[C@@]1(C)CC[C@H](O)CC1=C[C@@H]3NCCCNCCCCN (stereo partly drawn) | 3.12 µg/mL (≈ 5.89 µM) | 3.12 µg/mL (≈ 5.89 µM) | 6.25 µg/mL (≈ 11.8 µM) | 6.25 µg/mL (≈ 11.8 µM) | 3.12 µg/mL (≈ 5.89 µM) |  |
| CC(C)[C@@H](CC[C@@H](C)[C@H]1CC[C@H]2[C@@H]3[C@H](O)C[C@H]4C[C@@H](NCCCNCCCCN)CC[C@]4(C)[C@H]3CC[C@]12C)OS(=O)(=O)O [SQUALAMINE] | > 100 µg/mL |  |  | 1.56 µg/mL (≈ 2.48 µM) |  | 8 µg/mL (≈ 12.7 µM) |

— ChEMBL document CHEMBL1137153, “Synthesis of 7 alpha- and 7 beta-spermidinylcholesterol, squalamine analogues” (2004)
